Where “and” joins values, the source holds several entries; their conditions need not be identical. Identical values can stand only once. Toxic doses and inconclusive results are not listed.
Tested on: BDF1 mice, P288 methotrexate-resistant leukemia, survival T/C
Experiment: NCI In Vivo Anticancer Drug Screen. Data for tumor model P288 Lymphocytic Leukemia resistant to methotrexate; NSC 740 (intraperitoneal) in B6D2F1 (BDF1) mice
Conditions: endpoint: median survival time, higher = longer survival
Method: The antitumor activity of compounds was measured in mice bearing transplantable tumors. Survival or tumor size were measured and the results are expressed as the measurement made in the treated group (T) divided by the measurement made in the vehicle treated control group (C). The tumor model used in this assay is P288 Lymphocytic Leukemia resistant to methotrexate; NSC 740 (intraperitoneal) in B6D2F1 (BDF1) mice

[1] = dose: 120.0 mg/kg/injection, schedule: Q01DX010 (ip), vehicle: saline
[2] = dose: 25.0 mg/kg/injection, schedule: Q01DX010 (ip), vehicle: saline
[3] = dose: 50.0 mg/kg/injection, schedule: Q01DX010 (ip), vehicle: saline
[4] = dose: 100.0 mg/kg/injection, schedule: Q01DX010 (ip), vehicle: saline
[5] = dose: 200.0 mg/kg/injection, schedule: Q01DX010 (ip), vehicle: saline
[6] = dose: 0.25 mg/kg/injection, schedule: Q01DX010 (ip), vehicle: saline
[7] = dose: 0.5 mg/kg/injection, schedule: Q01DX010 (ip), vehicle: saline
[8] = dose: 1.0 mg/kg/injection, schedule: Q01DX010 (ip), vehicle: saline
[9] = dose: 20.0 mg/kg/injection, schedule: Q01DX010 (ip), vehicle: saline
[10] = dose: 40.0 mg/kg/injection, schedule: Q01DX010 (ip), vehicle: saline
[11] = dose: 1.5 mg/kg/injection, schedule: Q01DX010 (ip), vehicle: saline
[12] = dose: 3.0 mg/kg/injection, schedule: Q01DX010 (ip), vehicle: saline
[13] = dose: 6.0 mg/kg/injection, schedule: Q01DX010 (ip), vehicle: saline
[14] = dose: 12.0 mg/kg/injection, schedule: Q01DX010 (ip), vehicle: saline
[15] = dose: 5.0 mg/kg/injection, schedule: Q01DX010 (ip), vehicle: saline
[16] = dose: 10.0 mg/kg/injection, schedule: Q01DX010 (ip), vehicle: saline
[17] = dose: 8.0 mg/kg/injection, schedule: Q01DX010 (ip), vehicle: saline
[18] = dose: 16.0 mg/kg/injection, schedule: Q01DX010 (ip), vehicle: saline
[19] = dose: 32.0 mg/kg/injection, schedule: Q01DX010 (ip), vehicle: saline
[20] = dose: 64.0 mg/kg/injection, schedule: Q01DX010 (ip), vehicle: saline
[21] = dose: 6.25 mg/kg/injection, schedule: Q01DX010 (ip), vehicle: saline
[22] = dose: 12.5 mg/kg/injection, schedule: Q01DX010 (ip), vehicle: saline
[23] = dose: 4.0 mg/kg/injection, schedule: Q01DX010 (ip), vehicle: saline
[24] = dose: 62.5 mg/kg/injection, schedule: Q01DX010 (ip), vehicle: saline
[25] = dose: 125.0 mg/kg/injection, schedule: Q01DX010 (ip), vehicle: saline
[26] = dose: 2.5 mg/kg/injection, schedule: Q01DX010 (ip), vehicle: saline
[27] = dose: 2.0 mg/kg/injection, schedule: Q01DX010 (ip), vehicle: saline
[28] = dose: 3.13 mg/kg/injection, schedule: Q01DX010 (ip), vehicle: saline
[29] = dose: 15.6 mg/kg/injection, schedule: Q01DX010 (ip), vehicle: saline
[30] = dose: 31.3 mg/kg/injection, schedule: Q01DX010 (ip), vehicle: saline

CN(C)c1ccc(Nc2c3ccccc3nc3ccccc23)cc1
T/C (dose: 36.0 mg/kg/injection, schedule: Q01DX010 (ip), vehicle: saline): 95 % of control and 115 % of control | T/C (dose: 54.0 mg/kg/injection, schedule: Q01DX010 (ip), vehicle: saline): 115 % of control and 116 % of control | T/C [1]: 120 % of control

O=C1C(NC(=O)C2CCCCC2)=C(N2CC2)C(=O)C(NC(=O)C2CCCCC2)=C1N1CC1
T/C [2]: 90 % of control and 100 % of control | T/C [3]: 90 % of control and 100 % of control | T/C [4]: 90 % of control and 100 % of control | T/C [5]: 100 % of control and 110 % of control

CO[C@H](C(=O)[C@@H](O)[C@@H](C)O)[C@@H]1Cc2cc3cc(OC4CC(OC5CC(O)C(O)C(C)O5)C(O)C(C)O4)c(C)c(O)c3c(O)c2C(=O)[C@H]1OC1CC(OC2CC(OC3CC(C)(O)C(O)C(C)O3)C(O)C(C)O2)C(O)C(C)O1 (stereo partly drawn)
T/C [6]: 95 % of control | T/C [7]: 95 % of control | T/C [8]: 104 % of control

OCC1OC(n2cnc3c(=S)nc[nH]c32)C(O)C1O (stereo not drawn)
T/C [9]: 100 % of control and 105 % of control | T/C [10]: 95 % of control and 105 % of control | T/C (dose: 80.0 mg/kg/injection, schedule: Q01DX010 (ip), vehicle: saline): 100 % of control and 110 % of control | T/C (dose: 160.0 mg/kg/injection, schedule: Q01DX010 (ip), vehicle: saline): 100 % of control and 105 % of control

COc1cc(-c2ccc(Nc3ccccc3C(=O)O)c(OC)c2)ccc1Nc1ccccc1C(=O)O
T/C [2]: 154 % of control | T/C [3]: 163 % of control | T/C [4]: 172 % of control

Nc1ncnc2[nH]ncc12
T/C [11]: 100 % of control | T/C [12]: 95 % of control and 100 % of control | T/C [13]: 100 % of control and 105 % of control | T/C [14]: 90 % of control and 110 % of control

CN(C)c1ccc(/C=C/c2ccnc3ccccc23)cc1
T/C [15]: 104 % of control | T/C [16]: 90 % of control and 100 % of control | T/C [9]: 90 % of control and 100 % of control | T/C [10]: 90 % of control and 91 % of control

NC(Cc1c[nH]c2ccc(N(CCCl)CCCl)cc12)C(=O)O (stereo not drawn)
T/C [7]: 104 % of control

O=C(Nc1ccc(C2=NCCN2)cc1)c1cccc(C(=O)Nc2ccc(C3=NCCN3)cc2)c1
T/C [17]: 155 % of control and 166 % of control | T/C [18]: 185 % of control and 194 % of control | T/C [19]: 200 % of control and 238 % of control | T/C [20]: 250 % of control and 255 % of control

O=NN(CCCl)C(=O)NCCCl
T/C [21]: 280 % of control and 300 % of control | T/C [22]: 180 % of control

CC(CCC(C)OS(C)(=O)=O)OS(C)(=O)=O (stereo not drawn)
T/C [23]: 95 % of control | T/C [17]: 87 % of control and 95 % of control | T/C [18]: 95 % of control and 100 % of control

OCC1OC(n2cnc3c(Cl)ncnc32)C(O)C1O (stereo not drawn)
T/C [24]: 95 % of control and 100 % of control | T/C [25]: 90 % of control and 100 % of control | T/C (dose: 250.0 mg/kg/injection, schedule: Q01DX010 (ip), vehicle: saline): 90 % of control and 105 % of control | T/C (dose: 500.0 mg/kg/injection, schedule: Q01DX010 (ip), vehicle: saline): 90 % of control

N#CCSc1ncnc2nc[nH]c12
T/C (dose: 15.0 mg/kg/injection, schedule: Q01DX010 (ip), vehicle: saline): 91 % of control | T/C (dose: 30.0 mg/kg/injection, schedule: Q01DX010 (ip), vehicle: saline): 94 % of control and 95 % of control | T/C (dose: 60.0 mg/kg/injection, schedule: Q01DX010 (ip), vehicle: saline): 91 % of control and 94 % of control | T/C [1]: 94 % of control

N#[N+]c1cnc([O-])[nH]c1=O
T/C (dose: 1.25 mg/kg/injection, schedule: Q01DX010 (ip), vehicle: saline): 100 % of control | T/C [26]: 116 % of control and 118 % of control

CN(C)c1ccc(/C=C\c2ccnc3ccccc23)cc1
T/C [11]: 100 % of control | T/C [12]: 100 % of control | T/C [13]: 100 % of control | T/C [14]: 105 % of control

c1ccc(CNc2ncnc3[nH]ncc23)cc1
T/C [17]: 90 % of control and 115 % of control | T/C [18]: 100 % of control and 110 % of control | T/C [19]: 100 % of control and 110 % of control | T/C [20]: 110 % of control

CCCCn1cnc2c(=S)nc[nH]c21
T/C [27]: 86 % of control | T/C [23]: 86 % of control | T/C [17]: 90 % of control

C[C@H]1C(=O)O[C@@H]2CCN3CC=C(COC(=O)[C@](C)(O)[C@@]1(C)O)[C@H]23
T/C [28]: 100 % of control and 103 % of control | T/C [21]: 91 % of control and 111 % of control | T/C [22]: 91 % of control | T/C [2]: 91 % of control and 96 % of control

C1CN1c1nc(N2CC2)nc(N2CC2)n1
T/C (dose: 0.13 mg/kg/injection, schedule: Q01DX010 (ip), vehicle: saline): 90 % of control and 91 % of control | T/C [6]: 108 % of control and 110 % of control | T/C [8]: 90 % of control

CCCSc1ncnc2nc[nH]c12
T/C [29]: 104 % of control | T/C [30]: 90 % of control and 100 % of control | T/C [24]: 90 % of control and 104 % of control | T/C [25]: 90 % of control

CSCS(=O)C[C@H](CO)NC(=O)/C=C/c1c(C)[nH]c(=O)[nH]c1=O (stereo partly drawn)
T/C (dose: 62.5 micrograms/kg/injection, schedule: Q01DX010 (ip), vehicle: saline): 109 % of control | T/C (dose: 125.0 micrograms/kg/injection, schedule: Q01DX010 (ip), vehicle: saline): 100 % of control | T/C (dose: 250.0 micrograms/kg/injection, schedule: Q01DX010 (ip), vehicle: saline): 100 % of control | T/C (dose: 500.0 micrograms/kg/injection, schedule: Q01DX010 (ip), vehicle: saline): 90 % of control

CN(C)/N=N/c1nc[nH]c1C(N)=O
T/C [2]: 100 % of control | T/C [3]: 90 % of control | T/C [4]: 105 % of control and 109 % of control | T/C [5]: 90 % of control and 100 % of control

Cn1cnc([N+](=O)[O-])c1Sc1nc(N)nc2nc[nH]c12
T/C [26]: 109 % of control | T/C [15]: 90 % of control | T/C [16]: 109 % of control | T/C [9]: 109 % of control

CC(=O)O[C@]1(C(C)=O)CC[C@H]2[C@@H]3C[C@H](C)C4=CC(=O)C=C[C@]4(C)[C@@]3(F)[C@@H](O)C[C@@]21C
T/C (dose: 12.5 mg/kg/injection, schedule: Q01DX010 (sc), vehicle: steriod suspending solution): 100 % of control | T/C (dose: 25.0 mg/kg/injection, schedule: Q01DX010 (sc), vehicle: steriod suspending solution): 110 % of control | T/C (dose: 50.0 mg/kg/injection, schedule: Q01DX010 (sc), vehicle: steriod suspending solution): 105 % of control | T/C (dose: 100.0 mg/kg/injection, schedule: Q01DX010 (sc), vehicle: steriod suspending solution): 100 % of control

CCCCNc1ncnc2c1cnn2C
T/C [29]: 105 % of control | T/C [30]: 110 % of control | T/C [24]: 95 % of control and 110 % of control

[I][Hg][CH2]C1COC([CH2][Hg][I])CO1 (stereo not drawn)
T/C (dose: 1.56 mg/kg/injection, schedule: Q01DX010 (ip), vehicle: saline): 86 % of control | T/C [28]: 95 % of control | T/C [21]: 100 % of control | T/C [22]: 100 % of control | T/C [2]: 87 % of control

O=c1cnn(C2OC(CO)C(O)C2O)c(=O)[nH]1 (stereo not drawn)
T/C [5]: 100 % of control | T/C (dose: 400.0 mg/kg/injection, schedule: Q01DX010 (ip), vehicle: saline): 100 % of control | T/C (dose: 800.0 mg/kg/injection, schedule: Q01DX010 (ip), vehicle: saline): 91 % of control

Clc1ccc(C(c2ccccc2Cl)C(Cl)Cl)cc1 (stereo not drawn)
T/C (dose: 62.5 mg/kg/injection, schedule: Q01DX010 (sc), vehicle: steriod suspending solution): 109 % of control | T/C (dose: 125.0 mg/kg/injection, schedule: Q01DX010 (sc), vehicle: steriod suspending solution): 100 % of control | T/C (dose: 250.0 mg/kg/injection, schedule: Q01DX010 (sc), vehicle: steriod suspending solution): 109 % of control | T/C (dose: 500.0 mg/kg/injection, schedule: Q01DX010 (sc), vehicle: steriod suspending solution): 100 % of control

Nc1ncnc2c1ccn2C1OC(CO)C(O)C1O (stereo not drawn)
T/C [6]: 100 % of control | T/C [7]: 100 % of control | T/C [8]: 118 % of control | T/C [27]: 100 % of control

CS(=O)(=O)OCCN(CCOS(C)(=O)=O)c1ccc(N=O)cc1
T/C [7]: 120 % of control

— PubChem BioAssay AID204 (DTP/NCI, 2004)
